Here are results for 17 molecules from patent publication US20210300940A1 (Merck Patent GmbH, priority 2018, published 2021).

Where a name gives a salt, the structure may show the parent alone.

In one assay the target is T1, TLR8 (Homo sapiens, UniProt Q9NR97).
T1 construct: expressed in transfected cells; host or cells: HEK/293 reporter cells (NF-kB luciferase)
T1 sequence (Q9NR97 27-1041): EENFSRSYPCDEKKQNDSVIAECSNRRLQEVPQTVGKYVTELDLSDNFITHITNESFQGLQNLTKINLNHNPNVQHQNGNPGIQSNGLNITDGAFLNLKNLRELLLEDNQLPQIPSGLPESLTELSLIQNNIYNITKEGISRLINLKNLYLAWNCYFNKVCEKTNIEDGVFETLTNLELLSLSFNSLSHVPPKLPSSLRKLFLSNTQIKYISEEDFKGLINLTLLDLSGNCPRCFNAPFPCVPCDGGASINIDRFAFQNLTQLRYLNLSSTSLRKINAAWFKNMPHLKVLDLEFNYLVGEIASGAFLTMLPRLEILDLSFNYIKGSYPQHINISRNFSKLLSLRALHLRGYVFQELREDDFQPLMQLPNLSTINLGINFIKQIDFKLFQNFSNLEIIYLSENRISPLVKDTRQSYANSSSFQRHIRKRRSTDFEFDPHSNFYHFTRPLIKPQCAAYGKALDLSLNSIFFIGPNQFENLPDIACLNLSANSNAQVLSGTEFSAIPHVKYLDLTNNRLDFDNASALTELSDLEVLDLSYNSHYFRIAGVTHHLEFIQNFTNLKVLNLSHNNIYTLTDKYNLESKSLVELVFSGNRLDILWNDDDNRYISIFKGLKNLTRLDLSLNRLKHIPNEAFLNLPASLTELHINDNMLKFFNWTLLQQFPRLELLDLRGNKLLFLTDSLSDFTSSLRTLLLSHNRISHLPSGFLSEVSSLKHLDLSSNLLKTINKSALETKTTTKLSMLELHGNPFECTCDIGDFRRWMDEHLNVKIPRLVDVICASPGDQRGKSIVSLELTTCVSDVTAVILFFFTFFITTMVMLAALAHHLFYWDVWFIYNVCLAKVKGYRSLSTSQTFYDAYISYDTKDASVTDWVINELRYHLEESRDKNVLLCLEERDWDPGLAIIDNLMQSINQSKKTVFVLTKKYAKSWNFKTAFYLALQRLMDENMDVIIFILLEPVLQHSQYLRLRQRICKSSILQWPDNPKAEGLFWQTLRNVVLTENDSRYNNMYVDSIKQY
The assay is described as follows: HEK/293 TLR8 Cell Assay. It is filed as cell-based. Conditions: HEK cells, R848 agonist 30 uM final concentration, Steady-Glo readout; read-out: TLR8 potency. The protocol: (§1) Example 390: HEK/293 TLR8 Cell Assay Into 384 CulturePlates (Corning 3765) was placed 5000 c/w of […] in 30 uL DMEM without Phenol red (gibco #31053-028) and 10% heat inactivated fetal bovine serum, 1% penicillin-streptomycin, and 2 mM L-Glutamine. The cells were incubated for 24 h at 37° C., 10% carbon dioxide and 90% relative humidity. 3 uL of controls, standards, and compounds were dispensed into wells, incubated for 30 min then 3 uL of R848 agonist (30 uM final concentration) was added in 20 mM Hepes. After incubation for 5 hours, they were allowed to stand at room temperature for 15 min. To this was added 10 uL of Steady-Glo substrate reagent and shake assay plate for 5 min at 1500 rpm. The assay plate was allowed to sit for 30 min at room temperature and then the plate was read on EnVision.

The next assay concerns the target T2, TLR7 (Homo sapiens, UniProt Q9NYK1).
T2 construct: expressed in transfected cells; host or cells: HEK/293 cells carrying TLR7 and an NF-kB luciferase reporter
T2 sequence (Q9NYK1 27-1049): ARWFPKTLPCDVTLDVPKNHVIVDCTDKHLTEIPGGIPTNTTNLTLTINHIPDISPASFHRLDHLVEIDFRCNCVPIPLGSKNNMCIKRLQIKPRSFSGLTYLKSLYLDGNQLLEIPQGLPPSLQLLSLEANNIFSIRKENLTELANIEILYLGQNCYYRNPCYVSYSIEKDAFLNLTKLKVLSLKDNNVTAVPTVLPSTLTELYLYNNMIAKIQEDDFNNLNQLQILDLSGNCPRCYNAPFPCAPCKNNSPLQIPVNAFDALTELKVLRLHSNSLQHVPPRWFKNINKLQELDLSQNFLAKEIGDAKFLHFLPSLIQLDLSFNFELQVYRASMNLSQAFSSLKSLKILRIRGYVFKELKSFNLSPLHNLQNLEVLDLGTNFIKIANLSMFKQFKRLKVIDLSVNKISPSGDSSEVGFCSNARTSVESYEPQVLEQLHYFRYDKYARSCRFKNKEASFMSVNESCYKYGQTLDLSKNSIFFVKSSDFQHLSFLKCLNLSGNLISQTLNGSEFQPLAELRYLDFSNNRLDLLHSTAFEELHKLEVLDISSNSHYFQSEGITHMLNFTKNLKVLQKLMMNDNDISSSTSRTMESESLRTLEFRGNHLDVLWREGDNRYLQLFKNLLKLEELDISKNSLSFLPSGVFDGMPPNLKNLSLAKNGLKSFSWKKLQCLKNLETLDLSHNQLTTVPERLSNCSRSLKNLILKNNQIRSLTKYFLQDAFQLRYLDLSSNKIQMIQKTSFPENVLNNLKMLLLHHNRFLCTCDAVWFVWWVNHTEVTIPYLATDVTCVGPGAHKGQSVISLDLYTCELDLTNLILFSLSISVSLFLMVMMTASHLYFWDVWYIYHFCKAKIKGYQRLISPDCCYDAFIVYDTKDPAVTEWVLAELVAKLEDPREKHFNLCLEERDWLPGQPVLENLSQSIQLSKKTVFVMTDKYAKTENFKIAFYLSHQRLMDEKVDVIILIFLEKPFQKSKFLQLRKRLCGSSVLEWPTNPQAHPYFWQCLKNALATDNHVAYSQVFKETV
Nature of the assay: HEK/293 TLR7 Cell Assay. In kind it is cell-based. To be noted: TLR7/NFKb HEK cells, R848 agonist 10 uM final concentration, Steady-Glo readout; read-out: TLR7 potency. Here is the method: as §1, with “389:” for “390:”, “TLR7” for “TLR8”, “[…]” for “1%”, “(10” for “(30”

On to `C[C@H]1C[C@@H](NCC(=O)N2CC(O)C2)CN(c2ccc(C(F)(F)F)c3ncccc23)C1` [Example 51, 1-(3-Hydroxy-azetidin-1-yl)-2-[(3R,5S)-5-methyl-1-(8-trifluoromethyl-quinolin-5-yl)-piperidin-3-ylamino]-ethanone], for which the IC50 on TLR8 and on TLR7 was below 75 nM each time.
For the molecule `Cc1c(F)cc(N2C[C@@H](C)C[C@@H](NC(=O)CC3C4CC3CN(C)C4)C2)c2cccnc12` (stereo partly drawn) [Example 112, N-[(3R,5S)-1-(7-Fluoro-8-methyl-quinolin-5-yl)-5-methyl-piperidin-3-yl]-2-(3-methyl-3-aza-bicyclo[3.1.1]hept-6-yl)-acetamide], the IC50 on TLR8 and at TLR7 was below 75 nM each time.
For `Cc1nnc([C@H]2CN(c3ccc(C#N)c4nccnc34)C[C@@H](C)O2)o1` (racemic) [Example 212, 8-[(2R,6R)-2-Methyl-6-(5-methyl-[1,3,4]oxadiazol-2-yl)-morpholin-4-yl]-quinoxaline-5-carbonitrile], the IC50 is below 75 nM at TLR8 and above 150 nM at TLR7.
Taken in the same sequence, the figures for `C[C@H]1C[C@@H](NC2CS(=O)(=O)C2)CN(c2ccc(C(F)(F)F)c3ncccc23)C1` [Example 13, (1,1-Dioxo-1lambda6-thietan-3-yl)-[(3R,5S)-5-methyl-1-(8-trifluoromethyl-quinolin-5-yl)-piperidin-3-yl]-amine] were below 75 nM and below 75 nM.
As to `C[C@@H]1CN(c2ccc(C#N)c3nccnc23)C[C@H](C(=O)NCC2(F)CNC2)O1` [Example 293, (2R,6R)-4-(8-Cyano-quinoxalin-5-yl)-6-methyl-morpholine-2-carboxylic acid (3-fluoro-azetidin-3-ylmethyl)-amide], the IC50 at TLR8 and on TLR7 was below 75 nM throughout.
For the molecule `CN1CC[C@](F)(CNC(=O)[C@H]2CN(c3ccc(C#N)c4nccnc34)C[C@@H](C(F)(F)F)O2)C1` (single isomer, unassigned) [Example 357], the IC50 at TLR8 and at TLR7 was below 75 nM each time.
Turning to `C[C@H]1C[C@@H](N)CN(c2cnc(C#N)c3ncccc23)C1` [Example 8, 5-((3R,5S)-3-Amino-5-methyl-piperidin-1-yl)-[1,7]naphthyridine-8-carbonitrile hydrochloride], the IC50 at TLR8 and on TLR7 was below 75 nM throughout.
Regarding `C[C@H]1C[C@@H](NC(=O)[C@@H]2COCCN2)CN(c2ccc(C#N)c3nccnc23)C1` [Example 208, (3S)—N-[(3R,5S)-1-(8-cyanoquinoxalin-5-yl)-5-methylpiperidin-3-yl]morpholine-3-carboxamide], the IC50 on TLR8 was below 75 nM; at TLR7, 75 to 150 nM.
Take `C[C@H]1C[C@@H](NC(=O)[C@@H](N)[C@@H](C)O)CN(c2ccc(C(F)(F)F)c3ncccc23)C1` [Example 169, (2S,3R)-2-Amino-3-hydroxy-N-[(3R,5S)-5-methyl-1-(8-trifluoromethyl-quinolin-5-yl)-piperidin-3-yl]-butyramide]: the IC50 at TLR8 and at TLR7 was below 75 nM each time.
As for `C[C@H]1C[C@@H](NC(=O)CC2CCN(CCO)CC2F)CN(c2cnc(C#N)c3ncccc23)C1` (stereo partly drawn) [Example 148, N-[(3R,5S)-1-(8-Cyano-[1,7]naphthyridin-5-yl)-5-methyl-piperidin-3-yl]-2-[3-fluoro-1-(2-hydroxy-ethyl)-piperidin-4-yl]-acetamide], the IC50 at TLR8 was below 75 nM; at TLR7 it was 75 to 150 nM.
Take `C[C@H]1C[C@@H](NCC(O)CO)CN(c2cnc(C#N)c3ncccc23)C1` (stereo partly drawn) [Example 35, 5-[(3R,5S)-3-(2,3-Dihydroxy-propylamino)-5-methyl-piperidin-1-yl]-naphthyridine-8-carbonitrile]: the IC50 at TLR8 and at TLR7 was above 150 nM throughout.
For `Cc1ccc(N2C[C@@H](C)C[C@@H](NC(=O)CC3CCN(C(C)C)CC3)C2)c2cccnc12` [Example 108, 2-(1-Isopropyl-piperidin-4-yl)-N-[(3R,5S)-5-methyl-1-(8-methyl-quinolin-5-yl)-piperidin-3-yl]-acetamide], the IC50 at TLR8 and on TLR7 was below 75 nM throughout.
As for `C[C@@H]1CN(c2ccc(C#N)c3ncncc23)C[C@H](CNC(=O)C2(F)CCNC2)O1` (stereo partly drawn) [Example 343, N-{[(2S,6R)-4-(8-cyanoquinazolin-5-yl)-6-methylmorpholin-2-yl]methyl}-3-fluoropyrrolidine-3-carboxamide], the IC50 on TLR8 and on TLR7 was below 75 nM in each case.
As for `C[C@@H]1CN(c2ccc(C#N)c3nccnc23)C[C@H](C(=O)NC[C@@H](C)O)O1` [Example 238, (2R,6R)-4-(8-Cyano-quinoxalin-5-yl)-6-methyl-morpholine-2-carboxylic acid ((R)-2-hydroxy-propyl)-amide], the IC50 on TLR8 and at TLR7 was below 75 nM each time.
Turning to `C[C@H]1C[C@@H](NS(=O)(=O)NC(=O)CC2CCN(C)CC2)CN(c2ccc(C(F)(F)F)c3ncccc23)C1` [Example 202, N-{[(3R,5S)-5-methyl-1-[8-(trifluoromethyl)quinolin-5-yl]piperidin-3-yl]sulfamoyl}-2-(1-methylpiperidin-4-yl)acetamide], the IC50 is below 75 nM at TLR8 and 75 to 150 nM at TLR7.
Taken in the same sequence, the figures for `N#Cc1ccc(N2C[C@@H](CN3CC(O)C3)O[C@@H](C(F)(F)F)C2)c2nccnc12` (single isomer, unassigned) [Example 362] were above 150 nM and below 75 nM.
Taken in the same sequence, the figures for `C[C@H]1C[C@@H](NCCNS(N)(=O)=O)CN(c2ccc(C(F)(F)F)c3ncccc23)C1` [Example 19] were below 75 nM and 75 to 150 nM.
